Results: patent EP4806894A1, “TNAP INHIBITORY COMPOUND AND USE THEREOF” (Rednvia Co., Ltd., priority 2023, dated 2025)
Structures can show the parent of a compound that is named as a salt.

Experiments:
saos-2 cells = experiment: Anticalcification efficacy in saos-2 cells (osteogenic medium, Alizarin Red staining); format: cell-based; details: Homo sapiens, 168 h, test compound 1 µM, 7 days osteogenic medium, Alizarin Red absorbance 540 nm, read-out: calcification inhibition
Description: To confirm the inhibitory effect of calcification in saos-2 cells in which calcification is induced by overexpression of TNAP, saos-2 cells were cultured in a culture medium in an incubator at 37°C, 95% humidity, and 5% CO2. RPMI-1640 (Corning) supplemented with 10% FBS (Gibco) and 1% Pen/Strep (Gibco) was used as the culture medium.
Saos-2 cells were seeded in a 48-well plate at the density of 1.5 x 10^4 cells/well and used in the experiment when they reached 80-90% confluence after stabilization for 2 days.
After saos-2 cells were cultured in a 48-well plate to 80-90% confluence, the culture medium was removed and replaced with an osteogenic medium (OM). DMEM (Gibco) containing 10% FBS, 1% Pen/Strep, 100 nM dexamethasone (Sigma), 10 mM β-glycerophosphate (Sigma), and 0.05 mM L-ascorbic acid (Sigma) was used as the OM. Osteogenic differentiation of saos-2 cells by OM was induced for 7 days, and OM was replaced every 2 to 3 days.
When inducing calcification through OM in saos-2 cells, the cells were treated with concentrations of […] of the TNAP inhibitor test compounds with the OM replacement cycle, except for the control group (OM).
After 7 days of OM induction, the medium was removed from each well and the plate was washed twice with PBS. Cells were fixed with 4% paraformaldehyde for 1 hour, then the fixative was removed and washed twice with deionized water (DW). ARS solution was added to the plate and shaken for 1 hour to stain the cells. When the cells were sufficiently stained red, the dye was removed, the cells were washed carefully with DW, dried, and then photographs were taken of the stained cells. The red-stained area represents calcification induced by OM, and the degree of calcification was determined based on the degree of redness. To quantify this, 10% cetylpyridinium chloride was dispensed into the wells and the dye was dissolved. The dye-dissolved solution was transferred to each well of a 96 well plate and absorbance was measured at 540 nm.
The degree of decrease in the measured absorbance by the test compounds based on the absorbance for OM was evaluated as the degree of inhibition of calcification.

TNAP = target: T1, TNAP (Homo sapiens, UniProt P05186); experiment: TNAP inhibitory activity, colorimetric assay (alkaline phosphatase assay kit ab83369, pNPP substrate); format: biochemical; details: TNAP enzyme, 2 hours at room temperature, absorbance 405 nm
T1 sequence (P05186 18-502 limits assumed): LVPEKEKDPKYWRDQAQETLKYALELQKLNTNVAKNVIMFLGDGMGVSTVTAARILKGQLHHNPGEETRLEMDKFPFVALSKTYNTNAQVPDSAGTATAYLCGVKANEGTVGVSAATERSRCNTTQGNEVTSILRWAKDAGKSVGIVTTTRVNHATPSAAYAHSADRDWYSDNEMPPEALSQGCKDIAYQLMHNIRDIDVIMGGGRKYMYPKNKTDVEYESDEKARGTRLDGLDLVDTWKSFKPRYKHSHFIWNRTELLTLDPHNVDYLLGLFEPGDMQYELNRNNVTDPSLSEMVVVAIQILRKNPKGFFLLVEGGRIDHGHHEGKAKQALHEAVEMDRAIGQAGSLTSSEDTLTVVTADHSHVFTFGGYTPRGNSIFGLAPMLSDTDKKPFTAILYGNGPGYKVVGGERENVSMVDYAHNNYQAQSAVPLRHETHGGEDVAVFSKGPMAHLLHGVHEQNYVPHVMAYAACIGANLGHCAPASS
Description: The TNAP inhibitory activity of the compounds according to the present invention was analyzed by colorimetric assay.
The experiments were performed according to the protocol of the alkaline phosphatase assay kit ab83369.
TNAP enzyme at a concentration of 0.2 ng/µl was dispensed into a 96-well plate (Costar) (10 µl/well), to which the 10-fold diluted test substance was added (15 µl/well). The plate was incubated at room temperature, shielded from light, for 10 minutes to allow the enzyme and compound to act. After incubation, 125 µl of 1 mM substrate (pNPP) was added to each well of the plate, and the plate was incubated for 2 hours at room temperature in a darkened state to allow the enzyme, substrate, and test compound to act. Absorbance was measured at 405 nm using a microplate reader (Tecan spark), and IC50 was calculated using GraphPad Prism 9. The amount of p-nitrophenol produced was calculated through the absorbance, and the degree of TNAP activity inhibition was evaluated through the degree of inhibition of p-nitrophenol production, and the concentration of the compound that inhibited 50% was calculated as the IC50 value.

**Q.** How did the inhibition at 1 µM (saos-2 cells) turn out when `COc1ccc(-c2cnn(C(C)C)c2)cc1S(=O)(=O)Nc1cnc2c(c1)C(=O)NCC2` [Example 72, 5-(1-isopropyl-1H-pyrazole-4-yl)-2-methoxy-N-(5-oxo-5,6,7,8-tetrahydro-1,6-naphthyridine-3-yl)benzenesulfonamide] was run?
**A.** ≥ 50%

**Q.** And the IC50 (TNAP)?
**A.** 10 to 100 nM

**Q.** Which results are given for `COc1ccc(Br)cc1S(=O)(=O)Nc1cnc2c(c1)CN(C(=O)CC(C)(C)C)CC2` [Example 119, 5-bromo-N-(6-(3,3-dimethylbutanoyl)-5,6,7,8-tetrahydro-1,6-naphthyridine-3-yl)-2-methoxybenzenesulfonamide]?
**A.** inhibition at 1 µM (saos-2 cells): ≥ 50%; IC50 (TNAP): 10 to 100 nM

**Q.** `COc1ccc(F)cc1S(=O)(=O)Nc1cnc2c(c1)C(=O)NCCC2` [Example 15, 5-fluoro-2-methoxy-N-(5-oxo-6,7,8,9-tetrahydro-5H-pyrido[3,2-c]azepine-3-yl)benzenesulfonamide] was tested. Which inhibition at 1 µM (saos-2 cells) did it give?
**A.** ≥ 50%

**Q.** What about the IC50 (TNAP) of the same molecule?
**A.** 100 to 1000 nM

**Q.** For `COc1ccc(-c2cnn(C3CCCCO3)c2)cc1S(=O)(=O)Nc1cnc2c(c1)C(=O)NCC2` (centres unmarked) [Example 54, 2-methoxy-N-(5-oxo-5,6,7,8-tetrahydro-1,6-naphthyridine-3-yl)-5-(1-(tetrahydro-2H-pyran-2-yl)-1H-pyrazole-4-yl)benzenesulfonamide], which inhibition at 1 µM (saos-2 cells) is on record?
**A.** ≥ 50%

**Q.** And the IC50 (TNAP)?
**A.** 100 to 1000 nM

**Q.** What does the source list for `CCNC(=O)Cn1cc(-c2ccc(OC)c(S(=O)(=O)Nc3cnc4c(c3)C(=O)NCC4)c2)cn1` [Example 66, N-ethyl-2-(4-(4-methoxy-3-(N-(5-oxo-5,6,7,8-tetrahydro-1,6-naphthyridine-3-yl)sulfamoyl)phenyl)-1H-pyrazole-1-yl)acetamide]?
**A.** inhibition at 1 µM (saos-2 cells): < 0%; IC50 (TNAP): ≥ 1000 nM

**Q.** What does the source list for `O=C1NCCCc2ncc(NS(=O)(=O)c3cc(Br)cc4c3OCC4)cc21` [Example 17, 5-bromo-N-(5-oxo-6,7,8,9-tetrahydro-5H-pyrido[3,2-c]azepine-3-yl)-2,3-dihydrobenzofuran-7-sulfonamide]?
**A.** inhibition at 1 µM (saos-2 cells): < 0%; IC50 (TNAP): ≥ 1000 nM

**Q.** For `COc1ccc(C2=CCC(F)(F)CC2)cc1S(=O)(=O)Nc1cnc2c(c1)C(=O)NCC2` [Example 64, 4',4'-difluoro-4-methoxy-N-(5-oxo-5,6,7,8-tetrahydro-1,6-naphthyridine-3-yl)-2',3',4',5'-tetrahydro-[1,1'-biphenyl]-3-sulfonamide], which inhibition at 1 µM (saos-2 cells) is on record?
**A.** < 0%

**Q.** What about the IC50 (TNAP) of the same molecule?
**A.** ≥ 1000 nM

**Q.** For `COc1ccc(Br)cc1S(=O)(=O)Nc1cnc2c(c1)CN(C(=O)OCCF)CC2` [Example 102, 2-fluoroethyl3-((5-bromo-2-methoxyphenyl)sulfonamido)-7,8-dihydro-1,6-naphthyridine-6(5H)-carboxylate], which inhibition at 1 µM (saos-2 cells) is on record?
**A.** ≥ 50%

**Q.** What about the IC50 (TNAP) of the same molecule?
**A.** 10 to 100 nM

**Q.** What does the source list for `COc1ccc(OC)c(S(=O)(=O)Nc2cnc3c(c2)C(=O)NCC3)c1` [Example 7, 2,5-dimethoxy-N-(5-oxo-5,6,7,8-tetrahydro-1,6-naphthyridine-3-yl)benzenesulfonamide]?
**A.** inhibition at 1 µM (saos-2 cells): ≥ 50%; IC50 (TNAP): ≤ 10 nM

**Q.** `COc1ccc(-c2ccc(CC(=O)O)cc2)cc1S(=O)(=O)Nc1cnc2c(c1)C(=O)NC2` [Example 28, 2-(4'-methoxy-3'-(N-(5-oxo-6,7-dihydro-5H-pyrrolo[3,4-b]pyridine-3-yl)sulfamoyl)-[1,1'-biphenyl]-4-yl)acetic acid] was tested. Which inhibition at 1 µM (saos-2 cells) did it give?
**A.** ≥ 50%

**Q.** And the IC50 (TNAP)?
**A.** 10 to 100 nM

**Q.** Which results are given for `O=C1NCc2ncc(NS(=O)(=O)c3cc(Cl)cc4c3OCC4)cc21` [Example 20, 5-chloro-N-(5-oxo-6,7-dihydro-5H-pyrrolo[3,4-b]pyridine-3-yl)-2,3-dihydrobenzofuran-7-sulfonamide]?
**A.** inhibition at 1 µM (saos-2 cells): < 0%; IC50 (TNAP): ≥ 1000 nM

**Q.** Which inhibition at 1 µM (saos-2 cells) does the source give for `COc1ccc(F)cc1S(=O)(=O)Nc1cnc2c(c1)CNCC2` [Example 90, 5-fluoro-2-methoxy-N-(5,6,7,8-tetrahydro-1,6-naphthyridine-3-yl)benzenesulfonamide hydrochloride] here?
**A.** 0 to 50%

**Q.** And the IC50 (TNAP)?
**A.** 100 to 1000 nM

**Q.** What does the source list for `COc1ccc(-c2ccc(OC)c(S(=O)(=O)Nc3cnc4c(c3)C(=O)NCC4)c2)cc1` [Example 30, 4,4'-dimethoxy-N-(5-oxo-5,6,7,8-tetrahydro-1,6-naphthyridine-3-yl)-[1,1'-biphenyl]-3-sulfonamide]?
**A.** inhibition at 1 µM (saos-2 cells): 0 to 50%; IC50 (TNAP): ≥ 1000 nM
